# Literature values in patent US9884123B2, “Ligand-targeted molecules and methods thereof” (INVICTUS ONCOLOGY PVT. LTD., priority 2012, dated 2018).
# System: MDR cells
# Conditions: not given
row,Compound,Remarks: active against MDR cells too
1,CC(=O)O[C@@H](C)/C=C\C(=O)N[C@@H]1C[C@H](C)[C@H](C/C=C(C)/C=C/[C@H]2OC(C)(C)C[C@@]3(CO3)[C@@H]2O)O[C@@H]1C [Meamycin],Active
2,Epothilones A and B,Active

# System: not given
# Conditions: Table 1, numeric value; test system not given; read-out: IC50
row,Compound,IC50
1,"Cc1c[nH]c2c1[C@@]13C[C@@H]1CN(C(=O)c1cc4cc(NC(=O)c5cc6ccccc6o5)ccc4[nH]1)C3=CC2=O [Adozelesin (DC1), Adozelesin]",0.02 nM

# Same assay, conditions: Table 1, order of magnitude in words; test system not given
row,Compound,IC50
1,CC(=O)O[C@@H](C)/C=C\C(=O)N[C@@H]1C[C@H](C)[C@H](C/C=C(C)/C=C/[C@H]2OC(C)(C)C[C@@]3(CO3)[C@@H]2O)O[C@@H]1C [Meamycin],picomolar
2,COc1c(O)c2c(c3cc(C(=O)N4CCc5c4c(O)c(OC)c4[nH]c(C(=O)N6CC7CC78C6=CC(=O)c6[nH]cc(C)c68)cc54)[nH]c13)CCN2C(N)=O (stereo not shown) [CC-1065],nM to
3,Calicheamicins,Picomolar
4,COc1cccc2c1C(=O)c1c(O)c3c(c(O)c1C2=O)C[C@@](O)(C(=O)CO)C[C@@H]3O[C@H]1C[C@H](N)[C@H](O)[C@H](C)O1 [Doxorubucin],High nM
5,Auristatins E and F,nM to
6,COc1cc([C@@H]2c3cc4c(cc3[C@@H](O[C@@H]3O[C@@H]5CO[C@@H](c6cccs6)O[C@H]5[C@H](O)[C@H]3O)[C@H]3COC(=O)[C@H]23)OCO4)cc(OC)c1O [Teniposide],Low nM
7,C=C1C[C@H](C)C[C@@H]2CC=C[C@@H](C/C=C\C(=O)O[C@H]([C@@H](O)/C=C/[C@@H]3CC(C)=CCO3)C[C@@H]3O[C@H]3[C@@H](O)C1)O2 [Laulimalide],Low nM
8,Maytansinoid [Maytansinoid (DM1 and DM4)],nM to
9,CC[C@@H](/C=C(/C)[C@H]1C[C@H](OC)C[C@@H](O)C(C)(C)[C@]2(O)O[C@H](C[C@H](OC)[C@@H](O)C(=O)O1)C[C@H](OC)[C@@H]2O)CO [Peloruside A],Low nM
10,CCCCCCC[C@H](O)CC[C@H](O)[C@H]1CC[C@H]([C@H]2CC[C@H]([C@H](O)CCCCCCCCCC[C@@H](O)CC3=C[C@H](C)OC3=O)O2)O1 [27-hydroxybullatacin],Low pM
